# Measured values as given in patent US9504675B2, “Alpha-ketoheterocycles and methods of making and using” (The Scripps Research Institute, priority 2011, dated 2016).
# Tests used:
# [1] = system: endogenous levels of FAAH substrates AEA, PEA, OEA and of 2-AG, AA; assay: In vivo pharmacodynamic studies: brain and liver lipid levels after inhibitor treatment (LC-MS); set-up: species or system mouse (C57BL/6J)
# Experimental: This includes monitoring the effects of the inhibitors on the endogenous levels of the FAAH substrates anandamide (AEA, N-arachidonoyl ethanolamine), N-oleoyl ethanolamine (OEA), and N-palmitoyl ethanolamine (PEA), as well as the key lipids 2-arachidonoylglycerol (2-AG) and arachidonic acid (AA) that are not endogenous substrates for FAAH.
# Inhibitors were prepared as a saline-emulphor emulsion for intraperitoneal (i.p.) administration by vortexing, sonicating, and gently heating neat compound directly into an 18:1:1 v/v/v solution of saline:ethanol:emulphor, or as a homogeneous PEG solution for oral administration (p.o.) by vortexing, sonicating, and gently heating neat compound directly into PEG300 (Fluka). Male C57BL/6J mice (<6 months old, 20-28 g) were administered inhibitors in saline-emulphor emulsion or an 18:1:1 v/v/v saline:emulphor:ethanol vehicle i.p. at a volume of 10 μL/g weight, or alternatively inhibitors in PEG300 or a PEG300 vehicle p.o. at a volume of 4 μL/g weight. After the indicated amount of time, mice were anesthetized with isofluorane and killed by decapitation. Total brains (˜400 mg) and a portion of the liver (˜100 mg) were removed and flash frozen in liquid N2.
# Tissue was weighed and subsequently Dounce homogenized in 2:1:1 v/v/v CHCl3:MeOH:Tris pH 8.0 (8 mL) containing standards for lipids (50 pmol d4-PEA, 2 pmol d4-AEA, 0.5 nmol ds-2-AG, and 10 nmol pentadecanoic acid). The mixture was vortexed and then centrifuged (1,400×g, 10 min). The organic layer was removed, dried under a stream of N2, resolubilized in 2:1 v/v CHCl3:MeOH (120 μL), and 10 μL of this resolubilized lipid was injected onto an Agilent G6410B QQQ instrument. […] Mobile phase A was composed of a 95:5 v/v H2O:MeOH, and mobile phase B was composed of a 65:35:5 v/v/v i-PrOH:MeOH:H2O. 0.1% Formic acid or 0.1% ammonium hydroxide was included to assist in ion formation in positive and negative ionization mode, respectively. The flow rate for each run started at 0.1 mL/min with 0% B. At 5 min, the solvent was immediately changed to 60% B with a flow rate of 0.4 mL/min and increased linearly to 100% B over 10 min. […] MS analysis was performed with an electrospray ionization (ESI) source. […] For negative polarity, the analysis was performed in MS2 scan mode from 100-1000 m/z. The capillary was set to 4 kV, the fragmentor was set to 100 V, and the delta EMV was set to 0. Lipids were quantified by measuring the area under the peak in comparison to the standards.
# [2] = target: T1, recombinant rat FAAH (rFAAH) (Rattus norvegicus, UniProt P97612); assay: Enzyme assay: inhibition of purified recombinant rat FAAH, 14C-oleamide hydrolysis, Ki by Dixon plot; assay type: biochemical
# T1 construct: The truncated rat FAAH (rFAAH) was expressed in E. coli and purified; made in house; host or cells: Escherichia coli
# T1 sequence (P97612 30-579 limits assumed): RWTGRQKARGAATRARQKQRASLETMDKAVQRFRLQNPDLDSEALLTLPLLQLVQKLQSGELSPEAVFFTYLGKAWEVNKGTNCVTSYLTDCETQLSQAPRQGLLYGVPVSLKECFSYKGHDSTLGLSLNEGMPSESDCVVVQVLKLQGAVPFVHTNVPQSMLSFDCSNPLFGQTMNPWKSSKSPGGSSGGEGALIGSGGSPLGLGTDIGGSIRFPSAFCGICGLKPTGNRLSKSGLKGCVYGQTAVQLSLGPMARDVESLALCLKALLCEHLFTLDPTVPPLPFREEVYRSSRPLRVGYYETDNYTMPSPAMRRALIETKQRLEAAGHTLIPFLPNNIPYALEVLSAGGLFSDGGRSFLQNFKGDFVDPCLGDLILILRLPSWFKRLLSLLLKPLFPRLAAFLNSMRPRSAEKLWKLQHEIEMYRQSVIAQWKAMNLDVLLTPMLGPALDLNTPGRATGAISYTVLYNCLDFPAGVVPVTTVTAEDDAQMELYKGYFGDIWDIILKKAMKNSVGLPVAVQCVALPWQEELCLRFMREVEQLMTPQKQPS
# Experimental: (§1) Enzyme assays were performed at 20-23° C. with purified recombinant rat FAAH expressed in Escherichia coli or with solubilized COS-7 membrane extracts from cells transiently transfected with human FAAH cDNA (where specifically indicated) in a buffer of 125 mM Tris/1 mM EDTA/0.2% glycerol/0.02% Triton X-100/0.4 mM Hepes, pH 9.0.
# (§2) ^14C-labeled oleamide was prepared from ^14C-labeled oleic acid. The truncated rat FAAH (rFAAH) was expressed in E. coli and purified. The purified recombinant rFAAH was used in the inhibition assays unless otherwise indicated. The full-length human FAAH (hFAAH) was expressed in COS-7 cells as described, and the lysate of hFAAH-transfected COS-7 cells was used in the inhibition assays where explicitly indicated.
# (§3) The inhibition assays were performed as follows. […] The enzyme reaction was terminated by transferring 20 μL of the reaction mixture to 500 μL of 0.1 N HCl at three different time points. The ^14C-labeled oleamide (substrate) and oleic acid (product) were extracted with EtOAc and analyzed by TLC as detailed. The Ki of the inhibitor was calculated using a Dixon plot as described (standard deviations are provided in the Supporting Information tables).
# human FAAH (hFAAH) = target: T2, human FAAH (hFAAH) (Homo sapiens, UniProt O00519); assay: Enzyme assay: inhibition of human FAAH (lysate of hFAAH-transfected COS-7 cells), 14C-oleamide hydrolysis; assay type: biochemical
# T2 construct: The full-length human FAAH (hFAAH) was expressed in COS-7 cells; expressed in transfected cells; host or cells: COS-7 (transiently transfected with human FAAH cDNA)
# T2 sequence (O00519 1-579): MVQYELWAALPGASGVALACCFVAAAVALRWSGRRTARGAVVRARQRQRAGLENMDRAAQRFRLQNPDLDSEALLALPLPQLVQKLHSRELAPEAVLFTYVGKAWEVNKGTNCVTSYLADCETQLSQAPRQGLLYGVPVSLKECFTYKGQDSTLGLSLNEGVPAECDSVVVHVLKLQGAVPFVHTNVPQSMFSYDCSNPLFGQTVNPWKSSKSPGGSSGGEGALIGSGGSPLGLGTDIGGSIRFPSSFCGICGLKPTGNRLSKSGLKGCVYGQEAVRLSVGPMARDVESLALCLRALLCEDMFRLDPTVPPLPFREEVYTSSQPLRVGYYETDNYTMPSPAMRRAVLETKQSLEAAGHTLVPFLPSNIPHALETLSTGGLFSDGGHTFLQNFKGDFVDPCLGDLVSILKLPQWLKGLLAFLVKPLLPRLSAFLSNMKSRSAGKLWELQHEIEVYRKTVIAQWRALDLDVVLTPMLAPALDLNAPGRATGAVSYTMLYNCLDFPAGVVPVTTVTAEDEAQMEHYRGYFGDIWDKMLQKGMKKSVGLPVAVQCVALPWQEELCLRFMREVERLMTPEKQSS
# Experimental: as §1, §2, §3
# [3] = system: mice, acute thermal pain (tail flick at 52° C.); assay: Mouse tail flick assay (52° C. warm water), acute thermal pain; assay type: in vivo, mouse (CD-1); conditions: i.v. administration
# Experimental: Concurrent with these studies, two prototypical inhibitors 12 and 14 were examined for antinociceptive activity in a preclinical model of acute thermal pain (tail flick at 52° C.) in mice alongside 2 and morphine (i.v. administration).
# Male CD-1 (25-35 g, Charles River) mice were housed in groups of five in Plexiglas chambers with food and water available ad libitum. All animals were maintained on a 12 h light/dark cycle (lights on at 7:00 AM) in a temperature- and humidity-controlled animal colony. All tail-flick experiments were performed under an approved University of New England animal protocol in accordance with institutional guidelines and in accordance with the Guide for the Care and Use of Laboratory Animals as adopted and promulgated by the National Institutes of Health. Efficacy of the test compound was assessed using the 52° C. warm water tail-flick test. The latency to the first sign of a rapid tail-flick was taken as the behavioral endpoint. Each mouse was first tested for baseline latency by immersing its tail in the water and recording the time to response. Mice not responding within 5 sec were excluded from further testing. Mice were then administered the test compound and tested for antinociception at various time points afterwards. Antinociception was calculated by the following formula: % Antinociception=100×(test latency−control latency)/(10−control latency). A maximum score was assigned (100%) to animals not responding within 10 sec to avoid tissue damage.
# [4] = Rat liver microsome stability (rlm t1/2); assay type: in vitro ADME; conditions: rat liver microsomes
# [5] = Human liver microsome stability (hlm t1/2); assay type: in vitro ADME; conditions: human liver microsomes
# [6] = Table 6, 30 mg/kg i.p., 1 h, single mouse
# [7] = Table 6, 30 mg/kg i.p., 1 h, single mouse, vs vehicle
# [8] = Table 7, i.p. (30 mg/kg), 3 mice per group
# [9] = Table 7, i.p. (30 mg/kg), 3 mice per group, vs vehicle
# [10] = Table 7, oral (50 mg/kg), 3 mice per group
# [11] = Table 7, oral (50 mg/kg), 3 mice per group, vs vehicle
# [12] = Table 2, (R)-enantiomer, 1,2,3,4-tetrahydronaphthalene C2 acyl side chain
# [13] = Table 4, (R)-enantiomer, additional FAAH inhibitors
smiles,measurement,setting,value
"O=C(O)c1cccc(-c2cnc(C(=O)C3Cc4ccc(Oc5ccccc5)cc4C3)o2)n1 (stereo not shown) [Compound 29, 6-(2-(5-Phenoxyindane-2-carbonyl)oxazol-5-yl)picolinic acid]",Brain 2-AG,[1]; [6],12 pmol/g
same,Brain AA,[1]; [6],172 pmol/g
same,Brain AEA,[1]; [6],8 pmol/g
same,Brain PEA,[1]; [6],131 pmol/g
same,Brain 2-AG (fold increase),[1]; [7],0.9 fold increase
same,Brain AA (fold increase),[1]; [7],0.8 fold increase
same,Brain AEA (fold increase),[1]; [7],1.0 fold increase
same,Brain PEA (fold increase),[1]; [7],1.2 fold increase
"O=C(O)c1cccc(-c2cnc(C(=O)C3CCc4cc(Oc5ccccc5)ccc4C3)o2)n1 (stereo not shown) [Compound 14, 6-(2-(6-Phenoxy-1,2,3,4-tetrahydronaphthalene-2-carbonyl)oxazol-5-yl)picolinic acid]",Ki,"[2]; rFAAH, Table 5, active (S)-enantiomers",25 nM
same,Ki,"human FAAH (hFAAH); Table 5, active (S)-enantiomers",110 nM
same,reduction in activity against the human enzyme versus rat FAAH,"human FAAH (hFAAH); hFAAH vs rFAAH, active (S)-enantiomers",4 fold
same,Brain 2-AG,[1]; [6],14 pmol/g
same,Brain AA,[1]; [6],154 pmol/g
same,Brain AEA,[1]; [6],12 pmol/g
same,Brain PEA,[1]; [6],224 pmol/g
same,Liver 2-AG,[1]; [6],0.35 pmol/g
same,Liver AEA,[1]; [6],10 pmol/g
same,Liver PEA,[1]; [6],284 pmol/g
same,Brain 2-AG (fold increase),[1]; [7],1.0 fold increase
same,Brain AA (fold increase),[1]; [7],0.7 fold increase
same,Brain AEA (fold increase),[1]; [7],1.5 fold increase
same,Brain PEA (fold increase),[1]; [7],2.0 fold increase
same,Liver 2-AG (fold increase),[1]; [7],1.1 fold increase
same,Liver AEA (fold increase),[1]; [7],5 fold increase
same,Liver PEA (fold increase),[1]; [7],2.1 fold increase
same,Brain 2-AG,[1]; [8],8.5 pmol/g
same,Brain AEA,[1]; [8],9.0 pmol/g
same,Brain PEA,[1]; [8],321 pmol/g
same,Brain AEA (fold increase),[1]; [9],1.6 fold increase
same,Brain PEA (fold increase),[1]; [9],4.5 fold increase
same,Brain 2-AG,[1]; [10],11.2 pmol/g
same,Brain AEA,[1]; [10],19.8 pmol/g
same,Brain PEA,[1]; [10],260 pmol/g
same,Brain AEA (fold increase),[1]; [11],3.5 fold increase
same,Brain PEA (fold increase),[1]; [11],3.7 fold increase
same,dose needed for maximal effect relative to morphine,[3],2 fold
same,duration of antinociceptive effect,[3],150 min
same,time of maximal antinociceptive effect,[3],30 to 60 min
same,maximal antinociceptive effect (efficacy),[3]; dose-response alongside morphine,same maximal effect (efficacy) observed with morphine
"O=C(c1ncc(-c2ccccn2)o1)C1Cc2ccc(Oc3ccccc3)cc2C1 (stereo not shown) [Compound 27, (5-Phenoxyindan-2-yl)(5-(pyridin-2-yl)oxazol-2-yl)methanone]",Brain 2-AG,[1]; [6],11 pmol/g
same,Brain AA,[1]; [6],190 pmol/g
same,Brain AEA,[1]; [6],24 pmol/g
same,Brain PEA,[1]; [6],800 pmol/g
same,Brain 2-AG (fold increase),[1]; [7],0.8 fold increase
same,Brain AA (fold increase),[1]; [7],0.9 fold increase
same,Brain AEA (fold increase),[1]; [7],3.0 fold increase
same,Brain PEA (fold increase),[1]; [7],7.4 fold increase
"O=C(O)c1cccc(-c2cnc(C(=O)C3CCc4cc(OCc5ccccc5)ccc4C3)o2)n1 (single isomer, unassigned) [(S)-20, 6-(2-(6-(Benzyloxy)-1,2,3,4-tetrahydronaphthalene-2-carbonyl)oxazol-5-yl)picolinic acid]",Ki,"[2]; Table 2, (S)-enantiomer, 1,2,3,4-tetrahydronaphthalene C2 acyl side chain",34 nM
"O=C(c1nnco1)C1CCc2cc(Oc3ccccc3)ccc2C1 (single isomer, unassigned) [(S)-34, (1,3,4-Oxadlazol-2-yl)(6-phenoxy-1,2,3,4-tetrahydronaphthalen-2-yl)methanone]",Ki,"[2]; Table 4, (S)-enantiomer, additional FAAH inhibitors",0.5 nM
"O=C(c1ncco1)C1CCc2cc(OCc3ccccc3)ccc2C1 (single isomer, unassigned) [(R)-15, (6-(Benzyloxy)-1,2,3,4-tetrahydronaphthalen-2-yl)(oxazol-2-yl)methanone]",Ki,[2]; [12],87 nM
"O=C(c1nnco1)C1CCc2cc(Oc3ccccc3)ccc2C1 (single isomer, unassigned) [(R)-34, (1,3,4-Oxadlazol-2-yl)(6-phenoxy-1,2,3,4-tetrahydronaphthalen-2-yl)methanone]",Ki,[2]; [13],1.4 nM
"O=C(c1ncc(-c2ccccn2)o1)C1CCc2ccccc2C1 (single isomer, unassigned) [(R)-38, (5-(Pyridin-2-yl)oxazol-2-yl)(1,2,3,4-tetrahydronaphthalen-2-yl)methanone]",Ki,[2]; [13],3200 nM
"CN1CC[C@]23c4c5ccc(O)c4O[C@H]2[C@@H](O)C=C[C@H]3[C@H]1C5 [morphine, reference compound]",duration of antinociceptive effect,[3],150 min
"O=C(c1ncc(-c2ccccn2)o1)C1CCc2cc(OCc3ccccc3)ccc2C1 (stereo not shown) [Compound 18, (6-(Benzyloxy)-1,2,3,4-tetrahydronaphthalen-2-yl)(5-(pyridin-2-yl)oxazol-2-yl)methanone]",half-life,[4],12 to 15 min
same,half-life,[5],12 to 15 min
"O=C(c1ncc(-c2ccccn2)o1)C1CCc2ccccc2C1 (stereo not shown) [Compound 38, (5-(Pyridin-2-yl)oxazol-2-yl)(1,2,3,4-tetrahydronaphthalen-2-yl)methanone]",Ki relative to the FAAH inhibitor lacking the conformational constraints (Ki=200 nM),[2],2 fold
same,Ki,[2],430 nM
"N#Cc1cnc(C(=O)C2CCc3cc(Oc4ccccc4)ccc3C2)o1 (single isomer, unassigned) [(R)-11, 2-(6-Phenoxy-1,2,3,4-tetrahydronaphthalene-2-carbonyl)oxazole-5-carbonitrile]",Ki,[2]; [12],54 nM
"O=C(O)c1cccc(-c2cnc(C(=O)C3Cc4ccc(OCc5ccccc5)cc4C3)o2)n1 (single isomer, unassigned) [(S)-33, 6-(2-(5-(Benzyloxy)indane-2-carbonyl)oxazol-5-yl)picolinic acid]",Ki,"[2]; Table 3, tentatively assigned (S)-enantiomer, indane C2 acyl side chain",51 nM
"O=C(c1ncco1)C1CCc2cc(Oc3ccccc3)ccc2C1 (single isomer, unassigned) [(R)-9, Oxazol-2-yl(6-phenoxy-1,2,3,4-tetrahydronaphthalen-2-yl)methanone]",Ki,[2]; [12],410 nM
"O=C(c1nnc(-c2ccccn2)o1)C1CCc2cc(Oc3ccccc3)ccc2C1 (single isomer, unassigned) [(R)-36, (6-Phenoxy-1,2,3,4-tetrahydronaphthalen-2-yl)(5-(pyridin-2-yl)-1,3,4-oxadiazol-2-yl)methanone]",Ki,[2]; [13],6.3 nM
